Where two headings read alike, the source gives them in different places. Starred links: 1 amine or outer side, 2 acyl side, 3 side chain; linkers in the order of their positions; H or OH if unused. Positions of bridges follow the written chain, without caps; N, C: chain ends. Non-standard residues stand in square brackets, D forms with d. Residues, ends and D or L forms follow the SMILES beside them. ξ: configuration not given here. *: point of attachment. Orn(2-imidazolinyl) = N[C@@H](CCCNC1=NCCN1)C(=O)O; dαMeDab = C[C@](CCN[*:3])(N[*:1])C(=O)[*:2]; Arg(Me2a) = CN(C)C(=N)NCCC[C@H](N)C(=O)O; Arg(ω-nPr) = CCCNC(=N)NCCC[C@H](N)C(=O)O; dPhe(4-F) = N[C@H](Cc1ccc(F)cc1)C(=O)O; d1Nal = N[C@H](Cc1cccc2ccccc12)C(=O)O; dPhe(2-F) = N[C@H](Cc1ccccc1F)C(=O)O; Cit = NC(=O)NCCC[C@H](N)C(=O)O; dCha = N[C@H](CC1CCCCC1)C(=O)O; dChg = N[C@@H](C(=O)O)C1CCCCC1; dPhg = N[C@@H](C(=O)O)c1ccccc1; Imidazol2yl = c1c[nH]c(*)n1; Pyridin(2-yl) = c1ccc(*)nc1; Isobutyryl = CC(C)C(=O)*; Orn = NCCC[C@H](N)C(=O)O; Abu = CC[C@H](N)C(=O)O; Dap = NC[C@H](N)C(=O)O; ξOrn = NCCCC(N)C(=O)O; Acryloyl = C=CC(=O)*; ξDab = NCCC(N)C(=O)O; ClAc = O=C(CCl)*
System: MOLM-13 leukemia cells carrying MLL-AF9 fusion
Experiment: cell viability assay (WST-8), MOLM-13
Assay type: cell-based
Conditions: Homo sapiens, MOLM-13, 96 h
[1] = Table 2A, 4 days treatment, read-out: MOLM-13 IC50

Row | IC50 [1] | SMILES | IC50 (read-out: MOLM-13 IC50 (μM))
1 |  | CC[C@@H]1NC(=O)[C@H](CCCNC(=N)N(C)C)NC(=O)[C@](C)(NC(=O)C(C)C)CCNC(=O)[C@@H](CC2CCCCC2)NC1=O [Cpd. No. 36, N-((3R,6S,9S,12R)-3-(cyclohexylmethyl)-9-(3-(3,3-dimethylguanidino)propyl)-6-ethyl-12-methyl-2,5,8,11-tetraoxo-1,4,7,10-tetraazacyclotetradecan-12-yl)isobutyramide] (Isobutyryl-[dαMeDab][Arg(Me2a)][Abu][dCha]; lactam 1-C) | > 10 µM
2 | > 10 µM | C=CC(=O)NCCC[C@@H]1NC(=O)[C@](C)(NC(=O)C(C)C)CCNC(=O)[C@@H](c2ccccc2)NC(=O)[C@H](CC)NC1=O [Cpd. No. 23, N-(3-((5S,8R,13R)-5-ethyl-13-isobutyramido-13-methyl-3,6,9,14-tetraoxo-8-phenyl-1,4,7,10-tetraazacyclotetradecan-2-yl)propyl)acrylamide] (Isobutyryl-[dαMeDab][Orn](Acryloyl)[Abu][dPhg]; lactam 1-C) | 
3 |  | CC[C@@H]1NC(=O)[C@H](CCCNC(=N)N)NC(=O)[C@](C)(NC(=O)C(C)C)CCNC(=O)[C@@H](Cc2cccc3ccccc23)NC1=O [Cpd. No. 58, N-((3R,6S,9S,12R)-6-ethyl-9-(3-guanidinopropyl)-12-methyl-3-(naphthalen-1-ylmethyl)-2,5,8,11-tetraoxo-1,4,7,10-tetraazacyclotetradecan-12-yl)isobutyramide] (Isobutyryl-[dαMeDab]R[Abu][d1Nal]; lactam 1-C) | 2.37 µM
4 |  | CC[C@@H]1NC(=O)[C@H](CCCN2CCN(C)CC2)NC(=O)[C@](C)(NC(=O)C(C)C)CCNC(=O)[C@@H](CC2CCCCC2)NC1=O [Cpd. No. 43, N-((3R,6S,9S,12R)-3-(cyclohexylmethyl)-6-ethyl-12-methyl-9-(3-(4-methylpiperazin-1-yl)propyl)-2,5,8,11-tetraoxo-1,4,7,10-tetraazacyclotetradecan-12-yl)isobutyramide] | > 10 µM
5 |  | CC[C@@H]1NC(=O)C(CCNc2ccccn2)NC(=O)[C@](C)(NC(=O)C(C)C)CCNC(=O)[C@@H](c2ccccc2)NC1=O (stereo partly drawn) [Cpd. No. 11, N-((3R,6S,12R)-6-ethyl-12-methyl-2,5,8,11-tetraoxo-3-phenyl-9-(2-(pyridin-2-ylamino)ethyl)-1,4,7,10-tetraazacyclotetradecan-12-yl)isobutyramide] (Isobutyryl-[dαMeDab][ξDab](Pyridin(2-yl))[Abu][dPhg]; lactam 1-C) | > 10 µM
6 |  | CCCNC(=N)NCCC[C@@H]1NC(=O)[C@](C)(NC(=O)C(C)C)CCNC(=O)[C@@H](CC2CCCCC2)NC(=O)[C@H](CC)NC1=O [Cpd. No. 46, N-((3R,6S,9S,12R)-3-(cyclohexylmethyl)-6-ethyl-12-methyl-2,5,8,11-tetraoxo-9-(3-(3-propylguanidino)propyl)-1,4,7,10-tetraazacyclotetradecan-12-yl)isobutyramide] (Isobutyryl-[dαMeDab][Arg(ω-nPr)][Abu][dCha]; lactam 1-C) | > 10 µM
7 |  | CC[C@@H]1NC(=O)[C@H](CCCNC2=NCC(C)(C)CN2)NC(=O)[C@](C)(NC(=O)C(C)C)CCNC(=O)[C@@H](CC2CCCCC2)NC1=O [Cpd. No. 96, N-((3R,6S,9S,12R)-3-(cyclohexylmethyl)-9-(3-((5,5-dimethyl-1,4,5,6-tetrahydxopyrimidin-2-yl)amino)propyl)-6-ethyl-12-methyl-2,5,8,11-tetraoxo-1,4,7,10-tetraazacyclotetradecan-12-yl)isobutyramide] | > 10 µM
8 |  | CC[C@@H]1NC(=O)[C@H](CCCNC(=N)N)NC(=O)[C@](C)(NC(=O)C(C)C)CCNC(=O)[C@@H](Cc2ccc(F)cc2)NC1=O [Cpd. No. 57, N-((3R,6S,9S,12R)-6-ethyl-3-(4-fluorobenzyl)-9-(3-guanidinopropyl)-12-methyl-2,5,8,11-tetraoxo-1,4,7,10-tetraazacyclotetradecan-12-yl)isobutyramide] (Isobutyryl-[dαMeDab]R[Abu][dPhe(4-F)]; lactam 1-C) | 6.51 µM
9 |  | CC[C@@H]1NC(=O)[C@H](CCCNC(=N)NC(C)=O)NC(=O)[C@](C)(NC(=O)C(C)C)CCNC(=O)[C@@H](CC2CCCCC2)NC1=O [Cpd. No. 26, N-((3R,6S,9S,12R)-9-(3-(3-acetylguanidino)propyl)-3-(cyclohexylmethyl)-6-ethyl-12-methyl-2,5,8,11-tetraoxo-1,4,7,10-tetraazacyclotetradecan-12-yl)isobutyramide] (Isobutyryl-[dαMeDab]R(Ac)[Abu][dCha]; lactam 1-C) | 1.02 µM
10 |  | CCCCNC(=N)NCCC[C@@H]1NC(=O)[C@](C)(NC(=O)C(C)C)CCNC(=O)[C@@H](CC2CCCCC2)NC(=O)[C@H](CC)NC1=O [Cpd. No. 47, N-((3R,6S,9S,12R)-9-(3-(3-butylguanidino)propyl)-3-(cyclohexylmethyl)-6-ethyl-12-methyl-2,5,8,11-tetraoxo-1,4,7,10-tetraazacyclotetradecan-12-yl)isobutyramide] | > 10 µM
11 |  | CC[C@@H]1NC(=O)[C@H](CCCNc2ncc[nH]2)NC(=O)[C@](C)(NC(=O)C(C)C)CCNC(=O)[C@@H](c2ccccc2)NC1=O [Cpd. No. 20, N-((3R,6S,9S,12R)-9-(3-((1H-imidazol-2-yl)amino)propyl)-6-ethyl-12-methyl-2,5,8,11-tetraoxo-3-phenyl-1,4,7,10-tetraazacyclotetradecan-12-yl)isobutyramide] (Isobutyryl-[dαMeDab][Orn](Imidazol2yl)[Abu][dPhg]; lactam 1-C) | > 10 µM
12 |  | CC[C@@H]1NC(=O)[C@H](CCCNC(N)=O)NC(=O)[C@](C)(NC(=O)C(C)C)CCNC(=O)[C@@H](c2ccccc2)NC1=O [Cpd. No. 16, N-((3R,6S,9S,12R)-6-ethyl-12-methyl-2,5,8,11-tetraoxo-3-phenyl-9-(3-ureidopropyl)-1,4,7,10-tetraazacyclotetradecan-12-yl)isobutyramide] (Isobutyryl-[dαMeDab][Cit][Abu][dPhg]; lactam 1-C) | > 10 µM
13 |  | CC[C@@H]1NC(=O)[C@H](CCCNC(=N)N)NC(=O)[C@](C)(NC(=O)C(C)C)CCNC(=O)[C@@H](c2cccc3ccccc23)NC1=O [Cpd. No. 81, N-((3R,6S,9S,12R)-6-ethyl-9-(3-guanidinopropyl)-12-methyl-3-(naphthalen-1-yl)-2,5,8,11-tetraoxo-1,4,7,10-tetraazacyclotetradecan-12-yl)isobutyramide] | 1.29 µM
14 |  | CC[C@@H]1NC(=O)[C@H](CCNC2=NCCN2)NC(=O)[C@](C)(NC(=O)C(C)C)CCNC(=O)[C@@H](c2ccccc2)NC1=O [Cpd. No. 18, N-((3R,6S,9S,12R)-9-(2-((4,5-dihydro-1H-imidazol-2-yl)amino)ethyl)-6-ethyl-12-methyl-2,5,8,11-tetraoxo-3-phenyl-1,4,7,10-tetraazacyclotetradecan-12-yl)isobutyramide] | > 10 µM
15 |  | CC[C@@H]1NC(=O)[C@H](CCCNC(=N)N)NC(=O)[C@](C)(NC(=O)C(C)C)CCNC(=O)[C@@H](C2CCCCC2)NC1=O [Cpd. No. 51, N-((3R,6S,9S,12R)-3-cyclohexyl-6-ethyl-9-(3-guanidinopropyl)-12-methyl-2,5,8,11-tetraoxo-1,4,7,10-tetraazacyclotetradecan-12-yl)isobutyramide] (Isobutyryl-[dαMeDab]R[Abu][dChg]; lactam 1-C) | 0.64 µM
16 |  | CC[C@@H]1NC(=O)[C@H](CCCNC(=N)N)NC(=O)[C@](C)(NC(=O)C(C)C)CCNC(=O)[C@@H](CC2CCCCC2)NC1=O [Cpd. No. 52, N-((3R,6S,9S,12R)-3-(cyclohexylmethyl)-6-ethyl-9-(3-guanidinopropyl)-12-methyl-2,5,8,11-tetraoxo-1,4,7,10-tetraazacyclotetradecan-12-yl)isobutyramide] (Isobutyryl-[dαMeDab]R[Abu][dCha]; lactam 1-C) | 1.49 µM
17 |  | CC[C@@H]1NC(=O)[C@H](CNc2ccccn2)NC(=O)[C@](C)(NC(=O)C(C)C)CCNC(=O)[C@@H](c2ccccc2)NC1=O [Cpd. No. 10, N-((3R,6S,9S,12R)-6-ethyl-12-methyl-2,5,8,11-tetraoxo-3-phenyl-9-((pyridin-2-ylamino)methyl)-1,4,7,10-tetraazacyclotetradecan-12-yl)isobutyramide] (Isobutyryl-[dαMeDab][Dap](Pyridin(2-yl))[Abu][dPhg]; lactam 1-C) | > 10 µM
18 |  | CC[C@@H]1NC(=O)[C@H](CCCNC(=N)N)NC(=O)[C@](C)(NC(=O)C(C)C)CCNC(=O)[C@@H](Cc2ccccc2F)NC1=O [Cpd. No. 55, N-((3R,6S,9S,12R)-6-ethyl-3-(2-fluorobenzyl)-9-(3-guanidinopropyl)-12-methyl-2,5,8,11-tetraoxo-1,4,7,10-tetraazacyclotetradecan-12-yl)isobutyramide] (Isobutyryl-[dαMeDab]R[Abu][dPhe(2-F)]; lactam 1-C) | 3.59 µM
19 | > 10 µM | CC[C@@H]1NC(=O)C(CCCNC(=O)CCl)NC(=O)[C@](C)(NC(=O)C(C)C)CCNC(=O)[C@@H](c2ccccc2)NC1=O (stereo partly drawn) [Cpd. No. 25, N-((3R,6S,12R)-9-(3-(2-chloroacetamido)propyl)-6-ethyl-12-methyl-2,5,8,11-tetraoxo-3-phenyl-1,4,7,10-tetraazacyclotetradecan-12-yl)isobutyramide] (Isobutyryl-[dαMeDab][ξOrn](ClAc)[Abu][dPhg]; lactam 1-C) | 
20 |  | CC[C@@H]1NC(=O)[C@H](CCCNC2=NCCN2)NC(=O)[C@](C)(NC(=O)C(C)C)CCNC(=O)[C@@H](CC2CCCCC2)NC1=O [Cpd. No. 30, N-((3R,6S,9S,12R)-3-(cyclohexylmethyl)-9-(3-((4,5-dihydro-1H-imidazol-2-yl)amino)propyl)-6-ethyl-12-methyl-2,5,8,11-tetraoxo-1,4,7,10-tetraazacyclotetradecan-12-yl)isobutyramide] (Isobutyryl-[dαMeDab][Orn(2-imidazolinyl)][Abu][dCha]; lactam 1-C) | 0.67 µM
21 |  | CC[C@@H]1NC(=O)[C@H](CCCNC(=N)N)NC(=O)[C@](C)(NC(=O)C(C)C)CCNC(=O)[C@@H](c2ccc(Cl)cc2)NC1=O [Cpd. No. 100, N-((3R,6S,9S,12R)-3-(4-chlorophenyl)-6-ethyl-9-(3-guanidinopropyl)-12-methyl-2,5,8,11-tetraoxo-1,4,7,10-tetraazacyclotetradecan-12-yl)isobutyramide] | 2.2 µM

From patent US20210130401A1, “PEPTIDOMIMETIC INHIBITORS OF THE WDR5-MLL INTERACTION” (THE REGENTS OF THE UNIVERSITY OF MICHIGAN, priority 2017, published 2021)
